Measured values as given in the OligoGym collection.
Values joined by “and” are separate entries in the source; they are usually repeats but may differ in a detail not shown here. Equal entries are not always repeated. After the bases stand the sugars from the 5' end (letter, count) and the backbone: PS all phosphorothioate, else s phosphorothioate and o phosphodiester by linkage. Methylation of C is not given here. e = 2'-O-(2-methoxyethyl) (MOE); k = constrained ethyl (cEt); d = 2'-deoxy (DNA)

Target: APOL1
Conditions: ASO

Sequence	target mRNA inhibition (A431, 0.0156 µM)	target mRNA inhibition (A431, 0.0625 µM)	target mRNA inhibition (A431, 0.25 µM)	target mRNA inhibition (A431, 1 µM)	target mRNA inhibition (A431, 2 µM)
GAATTATGGAATTGCA (sugars kkdddddkekeddddd, PS)	17%	38%	75%	86%	92%
TTCTATTAGAGGGCTA (sugars kkddddkekekddddd, PS)					53%
CTAATTTTCTGACTGT (sugars kkddddkekekddddd, PS)					83%
GTATTGCCAGCTAAGG (sugars k4 d9 k3, PS)		56%	85%	94%	
CATTCAGAATTTCCAC (sugars kkkddddkekekdddd, PS)					65%
GTTATGAAATTATTGG (sugars kkkddddkekekdddd, PS)					79%
AACATGAAGTGAGCCT (sugars k4 d9 k3, PS)		20%	49%	73%	
GAAGCTTTAAACTCAG (sugars kkkddddkekekdddd, PS)					47%
TGGAAATGCCAAAGTC (sugars k4 d9 k3, PS)		62%	88%	96%	
ACGCAATGCTGACTTG (sugars k2 d4 e3 k2 d5, PS)					87%
ATTCAGAATTTCCACT (sugars kkddddekekeddddd, PS)					87%
TATGGAATTGCAGATA (sugars k4 d9 k3, PS)		8%	46%	74%	
ATTCTATTAGAGGGCT (sugars k2 d4 e3 k2 d5, PS)					70%
GAAGATTGGCTCTGGC (sugars kkdddddkekeddddd, PS)					70%
CCTTAATGTAAATTCC (sugars k4 d9 k3, PS)		32%	61%	80%	
GTTCAAAAGCAGCATT (sugars kekddddeekkddddd, PS)					89%
AGCTTTAAACTCAGGT (sugars k3 d5 k3 d5, PS)					68%
GCTAATTTTCTGACTG (sugars kkkddddkekeddddd, PS)	10%	42%	70%	87%	93%
TTTATACCAGTGTCTT (sugars kkddddkekekkdddd, PS)					51%
GAAGCTTTAAACTCAG (sugars kkddddekekeddddd, PS)					62%

Sequence	target mRNA inhibition (A431, 0.0156 µM)	target mRNA inhibition (A431, 0.0625 µM)	target mRNA inhibition (A431, 0.25 µM)	target mRNA inhibition (A431, 1 µM)	target mRNA inhibition (A431, 2 µM)
CTTTAAACTCAGGTGA (sugars kkddddekekeddddd, PS)					91%
GCTAATTTTCTGACTG (sugars kddddkekekeddddd, PS)					88%
GTTCTAACTCTTGGGC (sugars kkddddkekekddddd, PS)					61%
TTTAAACTCAGGTGAC (sugars kdddddkekekddddd, PS)					45%
CGTCAATATATTCTTT (sugars k3 d5 k3 d5, PS)	38%	56% and 62%	84% and 87%	93%	94%
TATTCTCATGGTACAG (sugars k2 d4 e3 k2 d5, PS)					71%
AACGCAATGCTGACTT (sugars k3 d4 k3 e1 d5, PS)	3%	24%	54%	80%	91%
GGTTATGAAATTATTG (sugars k3 d4 k3 e1 d5, PS)					91%
ACGCAATGCTGACTTG (sugars k3 d5 k3 d5, PS)		54%	83%	94%	94%
GGAATTATGGAATTGC (sugars kkdddddkekeddddd, PS)					40%
AAGTATTGCCAGCTAA (sugars kkkddddkdkdkdddd, PS)					54%
AAGATTGGCTCTGGCT (sugars k2 d4 e4 k2 d4, PS)					55%
ATTTCTTGATGTGGTG (sugars kkddddkekekkdddd, PS)					69%
GAATTATGGAATTGCA (sugars k2 d4 e3 k2 d5, PS)					94%
AAGGAGTTGCTGAAAC (sugars k4 d9 k3, PS)		32%	48%	63%	
TGAGTATTGTTTTTGT (sugars kkkddddkekeddddd, PS)	16%	47%	74%	90%	92%
GTAAGTATTGCCAGCT (sugars kkddddkekekddddd, PS)					53%
CGATTGTCTTGTTTTT (sugars k4 d9 k3, PS)		70% and 79%	90% and 88%	97% and 94%	
AGTTTCATATTCACCC (sugars k4 d9 k3, PS)		58%	83%	94%	
